From PubChem BioAssay (NCI)
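Step 1: Grow cells in 96-well plates. Step 2: Expose to compound for 48 hours at 5 concentrations. Step 3: Interpolate endpoints linearly; if unreached, use highest concentration. TGI is the concentration that stops growth completely.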

What was measured:
Assay in all cases: inhibition of tumour cell growth, NCI panel, 48 h
786-0 renal = system: 786-0 renal
A498 renal = system: A498 renal
A549 NSCLC = system: A549 NSCLC
ACHN renal = system: ACHN renal
CAKI-1 renal = system: CAKI-1 renal
CCRF-CEM leukemia = system: CCRF-CEM leukemia
COLO 205 colon = system: COLO 205 colon
DLD-1 colon = system: DLD-1 colon
DMS 114 small cell lung = system: DMS 114 small cell lung
DMS 273 small cell lung = system: DMS 273 small cell lung
EKVX NSCLC = system: EKVX NSCLC
HCT-116 colon = system: HCT-116 colon
HCT-15 colon = system: HCT-15 colon
HL-60(TB) leukemia = system: HL-60(TB) leukemia
HOP-62 NSCLC = system: HOP-62 NSCLC
IGROV1 ovarian = system: IGROV1 ovarian
K-562 leukemia = system: K-562 leukemia
KM12 colon = system: KM12 colon
LOX IMVI melanoma = system: LOX IMVI melanoma
LXFL 529 NSCLC = system: LXFL 529 NSCLC
M19-MEL melanoma = system: M19-MEL melanoma
MALME-3M melanoma = system: MALME-3M melanoma
MOLT-4 leukemia = system: MOLT-4 leukemia
NCI-H23 lung = system: NCI-H23 lung
NCI-H460 lung = system: NCI-H460 lung
NCI-H522 lung = system: NCI-H522 lung
OVCAR-3 ovarian = system: OVCAR-3 ovarian
OVCAR-4 ovarian = system: OVCAR-4 ovarian
OVCAR-5 ovarian = system: OVCAR-5 ovarian
OVCAR-8 ovarian = system: OVCAR-8 ovarian
RPMI-8226 leukemia = system: RPMI-8226 leukemia
RXF 393 renal = system: RXF 393 renal
SF-268 CNS = system: SF-268 CNS
SF-295 CNS = system: SF-295 CNS
SF-539 CNS = system: SF-539 CNS
SK-MEL-2 melanoma = system: SK-MEL-2 melanoma
SK-MEL-5 melanoma = system: SK-MEL-5 melanoma
SK-OV-3 ovarian = system: SK-OV-3 ovarian
SN12C renal = system: SN12C renal
SNB-19 CNS = system: SNB-19 CNS
SNB-75 CNS = system: SNB-75 CNS
SNB-78 CNS = system: SNB-78 CNS
TK-10 renal = system: TK-10 renal
U251 CNS = system: U251 CNS
UACC-257 melanoma = system: UACC-257 melanoma
UACC-62 melanoma = system: UACC-62 melanoma
UO-31 renal = system: UO-31 renal
XF 498 CNS = system: XF 498 CNS
HCC-2998 colon = system: HCC-2998 colon
HOP-92 NSCLC = system: HOP-92 NSCLC
HT29 colon = system: HT29 colon
KM20L2 colon = system: KM20L2 colon
M14 melanoma = system: M14 melanoma
SK-MEL-28 melanoma = system: SK-MEL-28 melanoma
SR leukemia = system: SR leukemia
SW-620 colon = system: SW-620 colon

Measured: TGI

CC(=O)O[C@H]1C(=O)[C@@]2(C)C(C(OC(=O)c3ccccc3)[C@]3(O)CC(OC(=O)C(O)C(NC(=O)c4ccc(C)cc4)c4ccccc4)C(C)=C1C3(C)C)[C@]1(OC(C)=O)CO[C@@H]1C[C@@H]2O (stereo partly specified)
9.47 µM: TK-10 renal
14.1 µM: A498 renal | HOP-62 NSCLC
15.4 µM: DLD-1 colon
7.44 µM: UACC-62 melanoma
0.101 µM: IGROV1 ovarian
3.35 µM: HL-60(TB) leukemia
< 0.0025 µM: DMS 114 small cell lung | NCI-H522 lung | OVCAR-3 ovarian
3.25 µM: DMS 273 small cell lung
0.143 µM: RXF 393 renal
5.77 µM: K-562 leukemia
16.7 µM: SNB-19 CNS
0.0141 µM: SK-MEL-2 melanoma
0.0119 µM: SF-539 CNS
0.0486 µM: SNB-75 CNS
3.29 µM: HCT-15 colon
16.8 µM: SK-MEL-5 melanoma
19.8 µM: KM12 colon
0.0284 µM: SK-OV-3 ovarian
0.107 µM: SF-295 CNS
6.77 µM: RPMI-8226 leukemia
4.23 µM: M19-MEL melanoma
0.411 µM: HCT-116 colon
3.98 µM: OVCAR-5 ovarian
9.23 µM: UO-31 renal
11.5 µM: MALME-3M melanoma
7.77 µM: LOX IMVI melanoma
7.39 µM: MOLT-4 leukemia
0.0201 µM: XF 498 CNS
0.00736 µM: COLO 205 colon
11.1 µM: CAKI-1 renal
not listed: HCC-2998 colon | HOP-92 NSCLC | HT29 colon | KM20L2 colon | M14 melanoma | SK-MEL-28 melanoma | SR leukemia | SW-620 colon
> 25 µM: all other assays above

COP1(=O)Oc2ccccc2C(=O)C(C(F)(F)F)(C(F)(F)F)O1 (stereo unspecified)
not listed: MALME-3M melanoma | OVCAR-3 ovarian | SNB-78 CNS
> 100 µM: all other assays above
